Measurements: patent publication US6790843B1, “C-19-halogen-substituted steroids of the androst-9(11)-ene-series, methods for the production and use thereof” (Schering AG, priority 1999, dated 2004)

Key:
human androgen receptor = biological target: T1, human androgen receptor (Homo sapiens, UniProt P10275); test: binding affinity to the androgen receptor (reference standard 3H-methyltrienolone R 1881)
T1 sequence (P10275 1-920): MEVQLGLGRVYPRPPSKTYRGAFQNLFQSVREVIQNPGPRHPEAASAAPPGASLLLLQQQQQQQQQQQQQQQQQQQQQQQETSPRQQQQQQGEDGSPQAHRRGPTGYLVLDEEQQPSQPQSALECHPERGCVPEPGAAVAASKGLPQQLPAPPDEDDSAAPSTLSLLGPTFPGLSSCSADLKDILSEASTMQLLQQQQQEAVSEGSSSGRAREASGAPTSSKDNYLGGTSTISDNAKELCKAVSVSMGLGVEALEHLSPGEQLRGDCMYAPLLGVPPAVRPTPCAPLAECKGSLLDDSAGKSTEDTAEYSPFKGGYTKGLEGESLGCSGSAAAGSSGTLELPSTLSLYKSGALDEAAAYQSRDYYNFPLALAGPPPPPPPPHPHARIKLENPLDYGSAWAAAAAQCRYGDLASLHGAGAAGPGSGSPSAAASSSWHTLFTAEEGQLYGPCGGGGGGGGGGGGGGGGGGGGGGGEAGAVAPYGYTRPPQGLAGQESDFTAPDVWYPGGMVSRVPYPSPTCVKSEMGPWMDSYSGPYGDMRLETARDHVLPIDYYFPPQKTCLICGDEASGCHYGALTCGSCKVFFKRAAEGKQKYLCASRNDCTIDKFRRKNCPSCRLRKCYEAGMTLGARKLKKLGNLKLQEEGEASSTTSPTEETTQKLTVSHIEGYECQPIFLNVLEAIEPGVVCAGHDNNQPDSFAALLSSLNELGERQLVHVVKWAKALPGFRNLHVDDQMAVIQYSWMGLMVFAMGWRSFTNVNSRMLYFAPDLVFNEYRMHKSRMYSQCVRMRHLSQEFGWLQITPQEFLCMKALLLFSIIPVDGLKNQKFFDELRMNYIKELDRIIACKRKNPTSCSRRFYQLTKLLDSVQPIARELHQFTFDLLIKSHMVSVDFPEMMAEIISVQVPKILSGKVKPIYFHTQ

melting point | SMILES | affinity to the androgen receptor (in words) (human androgen receptor) | IC50 (human androgen receptor)
126 °C | CCCCCCCSCC[C@]12CC[C@@H]3C(=CC[C@]4(C)[C@@H](O)CC[C@@H]34)[C@@]1(C)CC[C@H](O)C2 | – | –
212 °C | CCn1ccnc1SCC[C@]12CC[C@@H]3C(=CC[C@]4(C)[C@@H](O)CC[C@@H]34)[C@@]1(C)CC[C@H](O)C2 | – | –
– | C[C@]12CC=C3[C@@H](CCC4=CC(=O)CC[C@@]43CI)[C@@H]1CC[C@@H]2O [iodide 6, 17β-Hydroxy-19-iodo-androsta-4,9(11)-dien-3-one] | high affinity | 57 nM

SMILES | melting point | affinity to the androgen receptor (in words) (human androgen receptor) | IC50 (human androgen receptor)
C[C@]12CC=C3[C@@H](CCC4=CC(=O)CC[C@@]43CBr)[C@@H]1CC[C@@H]2O [Example 2, 19-Bromo-17β-hydroxy-androsta-4,9(11)-dien-3-one] | 149 °C (dec.) | high affinity | –
